Patent publication US9303057B2, “Methods and reagents for analyzing riboswitches using FRET” (CORNELL UNIVERSITY, priority 2011, dated 2016)

How the values were obtained:
SAM-II riboswitch [1] = assay: smFRET imaging of pseudoknot formation of surface-immobilized Cy3/Cy5-labeled riboswitch; assay type: binding, Sargasso Sea metagenome
Method: To reveal the underlying dynamics of SAM-II pseudoknot formation, single-molecule FRET (smFRET) (Aleman 2008; Lemay 2006; Brenner 2010) investigations were performed using the same labeling strategy as in Example 2 (i.e., A14^Cy3U and G52^Cy5U). To enable surface immobilization of the SAM-II riboswitch within a passivated microfluidic device and extended observation periods, a 5′-biotin moiety was included in the design (FIG. 2, FIG. 3).
smFRET data were acquired using a prism-based total internal reflection (TIR) microscope, where the biotinylated SAM-II riboswitch was surface immobilized within PEG-passivated, strepatividin-coated quartz microfluidic devices (Munro 2007). The Cy3 fluorophore was directly illuminated under 1.5 kW/cm^2 intensity at 532 nm (Laser Quantum). Photons emitted from both Cy3 and Cy5 were collected using a 1.2 NA 60× Plan-APO water-immersion objective (Nikon), where optical treatments were used to spatially separate Cy3 and Cy5 frequencies onto two, synchronized EMCCD devices (Evolve 512, Photometrics). Fluorescence data were acquired using MetaMorph acquisition software (Universal Imaging Corporation) at a rate of 66.7 frames per second (15 ms integration). Fluorescence trajectories were selected from the movie files for analysis using automated image analysis software coded in Matlab (The MathWorks). Fluorescence trajectories were selected based on the following criteria: a single catastrophic photobleaching event, at least 6:1 signal-to-background noise ratio (SNR) calculated from the total fluorescence intensity, and a FRET lifetime of at least 30 frames (450 ms) in any FRET state ≧0.15. smFRET trajectories were calculated from the acquired fluorescence data using the formula FRET=ICy5/(ICy3+ICy5), where ICy3 and ICy5 represent the Cy3 and Cy5 fluorescence intensities, respectively. Equilibrium smFRET experiments were performed in 50 mM KMOPS, 100 mM KCl, pH 7.5 buffer in the presence of an optimized oxygen scavenging and triplet state quenching cocktail in the presence of an oxygen scavenging environment (1 unit protocatchuate-3,4-dioxygenase, 2 mM protocatechuic acid; 1 mM Trolox, 1 mM cyclooctatetraene, 1 mM nitrobenzyl-alcohol) (Dave 2009). Concentrations of MgCl2 and SAM were as specified in the figure captions. […]
As previously described, the emission intensities of both Cy3 and Cy5 fluorophores were tracked simultaneously for individual surface-immobilized molecules using a wide-field, prism-based total internal reflection configuration, with a single-frequency light source (532 nm) (Munro 2007). […] The dynamic behaviors of individual molecules were assessed using hidden Markov modeling (HMM) procedures, and ensemble information was obtained by assembling single-molecule FRET trajectories into population FRET histograms. […]

SAM-II riboswitch [2] = assay: Bulk FRET detection of pseudoknot formation (steady-state fluorescence of Cy3/Cy5-labeled riboswitch); assay type: binding, Sargasso Sea metagenome
Method: FIG. 2 illustrates the construction of a Cy3/Cy5-labeled SAM-II construct sensitive to pseudoknot formation. (a) The strategy for synthesis, labeling and enzymatic ligation is shown, with the chemical structures of fluorophores and linkers provided in FIG. 3. (b) Anion-exchange (AE) HPLC trace of enzymatic ligation using T4 DNA ligase and a DNA splint at the start (0 h) and after completion (9 h). The product (retention time=37.3 min) was purified by AE-HPLC. (c) LC-ESI mass spectrum of purified ligation product. (d) Fluorescence emission response of the acceptor dye in the Cy5/Cy3 labeled SAM-II construct upon consecutive Mg^2+ and SAM addition under conditions where cRNA=0.5 μM, cSAM=5.0 μM, cmg=2.0 mM, 50 mM KMOPS, 100 mM KCl, 20° C., pH 7.5; λex=540 nm, λem=665 nm.
All experiments were measured on a Cary Eclipse spectrometer (Varian, Palo Alto, USA) equipped with a peltier block, a magnetic stirring device, and a RX2000 stopped-flow apparatus (Applied Photophysics Ltd., Leatherhead, UK).
Based on the reported structure of the SAM-II riboswitch (Gilbert 2008), an acceptor (Cy5) fluorophore was attached to the non-conserved nucleoside at position 14, and a donor (Cy3) fluorophore at the unpaired terminal residue at position 52 (FIG. 1a). […]

[Cl-].[Cl-].[Mg+2] [Mg^2+]
increase of the absolute value of the low-FRET state (SAM-II riboswitch [1]; 2 mM Mg2+, no SAM): 0.08 | stabilization of the high-FRET state (SAM-II riboswitch [1]; 2 mM Mg2+, no SAM): approximately 10 fold

C[S+](CC[C@H](N)C(=O)O)C[C@H]1O[C@@H](n2cnc3c(N)ncnc32)[C@H](O)[C@@H]1O (stereo partly drawn) [SAM, S-adenosylmethionine]
average dwell time in the high-FRET state (SAM-II riboswitch [1]; 2 mM Mg2+ and 10 μM SAM): approximately one | stabilization of the high-FRET state (SAM-II riboswitch [1]; 2 mM Mg2+ and 10 μM SAM): ~10 fold | observed rate of increase of acceptor fluorescence emission (single exponential) (SAM-II riboswitch [2]; 6 equivalents of SAM, Cy3/Cy5-labeled riboswitch, cRNA=0.5 μM, 2.0 mM Mg2+, 20° C., pH 7.5): 1.19±0.06×10^−2 s^−1 | fluorescence emission from the acceptor fluorophore achieved via FRET (SAM-II riboswitch [2]; addition of 10 equivalents of SAM): dramatically increase in intensity
